US20090124691A1, “INHIBITOR OF INCREASE IN POSTPRANDIAL BLOOD INSULIN LEVEL” (Kao Corporation, priority 2006, published 2009)

Test system: blood insulin level
Test: Effect of monoacylglycerol in inhibiting postprandial increase in blood insulin level in mouse (oral emulsion, ELISA, AUC)
Type: in vivo, Male C57BL/6J mice
Conditions: mice, TAG compared with only glucose, MAG in an amount of 1/10 or 1/5 of that of TAG compared with TAG/MAG0 group
Experimental: Triolein was employed as a triacylglycerol, and 1-monoolein was employed as a monoacylglycerol.
Male C57BL/6J mice (eight weeks old) were divided into groups (eight mice each). Through a probe, mice of the respective groups were orally administered the following substance: only glucose (2 mg/g-body weight) (Glucose); glucose (2 mg/g-body weight) plus triolein (TAG) (2 mg/g-body weight) emulsified with egg yolk lecithin (0.02 mg/g-body weight) (TAG/MAGO); TAG/MAGO supplemented with 1-monoolein (MAG) of 0.08, 0.2 and 0.4 mg/g-body weight, respectively (TAG/MAG1, TAG/MAG2 and TAG/MAG3). […] Blood was collected from the orbital vein of each mouse over time until 30 minutes after oral administration, and blood insulin level was measured, followed by calculation of the area under the curve (AUC) of a graph. Blood insulin level was measured through ELISA (insulin assay kit, product of Morinaga Institute of Biological Science, Inc.).

## CCCCCCCC/C=C\CCCCCCCC(=O)OCC(O)CO (stereo not shown) [MAG, 1-monoolein]
  postprandial blood insulin level (amount of postprandial insulin secretion), result in words: decreased postprandial blood insulin level
